{"source": "PubChem BioAssay (NCI)", "experiment_in_all_cases": "NCI anticancer screen, dose series, 48 h", "key": {"DU-145 prostate": {"test_system": "DU-145 prostate"}, "K-562 leukemia": {"test_system": "K-562 leukemia"}, "NCI-H460 lung": {"test_system": "NCI-H460 lung"}, "SF-539 CNS": {"test_system": "SF-539 CNS"}, "HOP-62 NSCLC": {"test_system": "HOP-62 NSCLC"}, "HL-60(TB) leukemia": {"test_system": "HL-60(TB) leukemia"}, "HCC-2998 colon": {"test_system": "HCC-2998 colon"}, "COLO 205 colon": {"test_system": "COLO 205 colon"}, "A498 renal": {"test_system": "A498 renal"}, "HT29 colon": {"test_system": "HT29 colon"}, "OVCAR-3 ovarian": {"test_system": "OVCAR-3 ovarian"}}, "note": "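Dose response: 5 concentrations. Exposure: 48 h. Format: 96-well plates. Endpoint: linear interpolation; highest concentration if not reached. TGI denotes the concentration required for complete inhibition of growth.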", "data": [{"smiles": "CCCCCCCCCCCCCCCCNC(=O)C(=O)/C=C(\\O)c1ccc(C)cc1", "values": [{"measurement": "TGI", "setting": "DU-145 prostate", "result": "> 10", "unit": "µM"}, {"measurement": "TGI", "setting": "K-562 leukemia", "result": "> 10", "unit": "µM"}, {"measurement": "TGI", "setting": "NCI-H460 lung", "result": "> 10", "unit": "µM"}, {"measurement": "TGI", "setting": "SF-539 CNS", "result": "> 10", "unit": "µM"}, {"measurement": "TGI", "setting": "HOP-62 NSCLC", "result": "> 10", "unit": "µM"}, {"measurement": "TGI", "setting": "HL-60(TB) leukemia", "result": "> 10", "unit": "µM"}, {"measurement": "TGI", "setting": "HCC-2998 colon", "result": "> 10", "unit": "µM"}, {"measurement": "TGI", "setting": "COLO 205 colon", "result": "> 10", "unit": "µM"}, {"measurement": "TGI", "setting": "A498 renal", "result": "> 10", "unit": "µM"}, {"measurement": "TGI", "setting": "HT29 colon", "result": "> 10", "unit": "µM"}, {"measurement": "TGI", "setting": "OVCAR-3 ovarian", "result": "> 10", "unit": "µM"}]}, {"smiles": "NC(N)=NC(N)=Nc1ccc(S(=O)(=O)O)cc1", "values": [{"measurement": "TGI", "setting": "DU-145 prostate", "result": "> 100", "unit": "µM"}, {"measurement": "TGI", "setting": "K-562 leukemia", "result": "> 100", "unit": "µM"}, {"measurement": "TGI", "setting": "NCI-H460 lung", "result": "> 100", "unit": "µM"}, {"measurement": "TGI", "setting": "SF-539 CNS", "result": "> 100", "unit": "µM"}, {"measurement": "TGI", "setting": "HOP-62 NSCLC", "result": "> 100", "unit": "µM"}, {"measurement": "TGI", "setting": "HL-60(TB) leukemia", "result": "> 100", "unit": "µM"}, {"measurement": "TGI", "setting": "HCC-2998 colon", "result": "> 100", "unit": "µM"}, {"measurement": "TGI", "setting": "COLO 205 colon", "result": "> 100", "unit": "µM"}, {"measurement": "TGI", "setting": "A498 renal", "result": "> 100", "unit": "µM"}, {"measurement": "TGI", "setting": "HT29 colon", "result": "> 100", "unit": "µM"}, {"measurement": "TGI", "setting": "OVCAR-3 ovarian", "result": "> 100", "unit": "µM"}]}, {"smiles": "COc1ccc2nc(-c3ccccc3)cc(OCC(=O)O)c2c1", "values": [{"measurement": "TGI", "setting": "DU-145 prostate", "result": "> 100", "unit": "µM"}, {"measurement": "TGI", "setting": "K-562 leukemia", "result": "> 100", "unit": "µM"}, {"measurement": "TGI", "setting": "NCI-H460 lung", "result": "> 100", "unit": "µM"}, {"measurement": "TGI", "setting": "SF-539 CNS", "result": "> 100", "unit": "µM"}, {"measurement": "TGI", "setting": "HOP-62 NSCLC", "result": "> 100", "unit": "µM"}, {"measurement": "TGI", "setting": "HL-60(TB) leukemia", "result": "> 100", "unit": "µM"}, {"measurement": "TGI", "setting": "HCC-2998 colon", "result": "> 100", "unit": "µM"}, {"measurement": "TGI", "setting": "COLO 205 colon", "result": "> 100", "unit": "µM"}, {"measurement": "TGI", "setting": "A498 renal", "result": "> 100", "unit": "µM"}, {"measurement": "TGI", "setting": "HT29 colon", "result": "> 100", "unit": "µM"}, {"measurement": "TGI", "setting": "OVCAR-3 ovarian", "result": "> 100", "unit": "µM"}]}, {"smiles": "CCOC(=O)c1c(N=P(c2ccccc2)(c2ccccc2)c2ccccc2)nnc(-c2ccccc2)c1-c1ccccc1", "values": [{"measurement": "TGI", "setting": "DU-145 prostate", "result": "> 100", "unit": "µM"}, {"measurement": "TGI", "setting": "K-562 leukemia", "result": "> 100", "unit": "µM"}, {"measurement": "TGI", "setting": "NCI-H460 lung", "result": "> 100", "unit": "µM"}, {"measurement": "TGI", "setting": "SF-539 CNS", "result": "> 100", "unit": "µM"}, {"measurement": "TGI", "setting": "HOP-62 NSCLC", "result": "> 100", "unit": "µM"}, {"measurement": "TGI", "setting": "HL-60(TB) leukemia", "result": "> 100", "unit": "µM"}, {"measurement": "TGI", "setting": "HCC-2998 colon", "result": "> 100", "unit": "µM"}, {"measurement": "TGI", "setting": "COLO 205 colon", "result": "> 100", "unit": "µM"}, {"measurement": "TGI", "setting": "A498 renal", "result": 99.3, "unit": "µM"}, {"measurement": "TGI", "setting": "HT29 colon", "result": "> 100", "unit": "µM"}, {"measurement": "TGI", "setting": "OVCAR-3 ovarian", "result": "> 100", "unit": "µM"}]}, {"smiles": "CS(=O)(=O)OCCN(CCOS(C)(=O)=O)c1ccc(C=Nc2cccc(Cl)c2)cc1", "values": [{"measurement": "TGI", "setting": "DU-145 prostate", "result": "> 100", "unit": "µM"}, {"measurement": "TGI", "setting": "K-562 leukemia", "result": "> 100", "unit": "µM"}, {"measurement": "TGI", "setting": "NCI-H460 lung", "result": "> 33.4", "unit": "µM"}, {"measurement": "TGI", "setting": "SF-539 CNS", "result": 27.3, "unit": "µM"}, {"measurement": "TGI", "setting": "HOP-62 NSCLC", "result": "> 100", "unit": "µM"}, {"measurement": "TGI", "setting": "HL-60(TB) leukemia", "result": "> 100", "unit": "µM"}, {"measurement": "TGI", "setting": "HCC-2998 colon", "result": 19.7, "unit": "µM"}, {"measurement": "TGI", "setting": "COLO 205 colon", "result": 6.56, "unit": "µM"}, {"measurement": "TGI", "setting": "A498 renal", "result": 13.8, "unit": "µM"}, {"measurement": "TGI", "setting": "HT29 colon", "result": 33.6, "unit": "µM"}, {"measurement": "TGI", "setting": "OVCAR-3 ovarian", "result": 51.8, "unit": "µM"}]}]}
